# In US6773702B2, “Use of combretastatin A4 and its prodrugs as an immune enhancing therapy” (OXiGENE, Inc., priority 2000, dated 2004):
# Experiments:
# [1] = cited from earlier work
# [2] = Half-life and estimated in vivo concentration of CA4P
# Experimental: (§1) The purified adherent cells (6×10^5/microtiter well) were treated in vitro for 3 hours with 0.15 ug/ml CA4P before washing. […] These variables were used to choose an in vitro concentration that is equal to the average concentration in vivo after a 3 hour period. For example, after treatment with 2 mg/kg in vivo, the concentration would be a maximum of 0.18 ug/ml 1.5 hours later, and less than 1 ng/ml after 3 hours.
# [3] = test system: BN7005-H1D2 colon cancer cells; experiment: Comparison of CA4 and CA4P on BN7005-H1D2 tumor growth, alone or with vaccination (FIG. 5); format: in vivo, rat
# Experimental: FIGS. 5A AND 5B illustrate a comparison of the therapeutic effect of Combretastatin A4 and Combretastatin A4 Prodrug (2 mg/kg) on tumor growth (BN7005-H1D2) in vivo as a sole therapy or in combination with therapeutic vaccination (IL-18 tumor transfectants). Results are represented as mean tumor volume (FIG. 5A) or as median tumor volume (FIG. 5B) 31 days after tumor initiation.
# A comparison was also made of relative effect of CA4 and CA4P administration in vivo with regard to tumor inhibitory effects when used as sole therapy and when combined with immunomodulatory gene therapy. […] A subset of these animals were subjected to regular vaccinations autologous IL-18 and IL-12-transfected tumor cells, respectively.
# A comparison has been made of the effect of CA4 and CA4 prodrug with regard to tumor inhibitory effects when used as sole therapy and when combined with immunomodulatory gene therapy. As represented in FIG. 5, wild-type (BN7005-H1D2) colon cancer cells were inoculated intrahepatically and treatment with CA4 and CA4P began on day 7 (2 mg/kg 6 days a week), when the tumors were macroscopically visible. On day 9, 16 and 23, vaccinations occurred using BN7005-H1D2 cells transfected with ILI8 and IL-12, respectively.
# [4] = test system: spleen cells isolated from BN7005-H1D2 tumor-bearing rats; experiment: In vitro proliferation of spleen cells from vaccinated tumor-bearing rats treated in vivo with CA4P (FIG. 1); set-up: species or system rat; conditions: CA4P 2 mg/kg 5 days a week + vaccination
# [5] = test system: spleen cells of tumor-free rats immunized with BN7005-H1D2-IL-12 and IL-18 cells; experiment: Proliferative T cell response (thymidine incorporation) after in vitro preincubation of spleen cells with CA4P; format: cell-based, rat
# Source text: Macrophages were isolated as plastic-adherent spleen cells from tumor-free rats vaccinated with IL-18 and IL-12 transfected tumor cells. […] This effect is interpreted as due to a decrease of the suppressive effect of IL-12 and IL-18 activated macrophages on T cell responses.
# The observation of selective macrophage toxicity is further supported by the observation that CA4P treatment of unseparated spleen cells recapitulates this anti-tumor immune response. FIG. 3 illustrates the in vitro immune proliferative response of unseparated spleen cells isolated from tumor-free rats previously vaccinated with IL-18 and IL-12 transfected tumor cells. Spleen cells were stimulated with untransfected (H1D2-WT) tumor cells (FIG. 3A) or the superantigen SEA polyclonal activator (FIG. 3B) after preincubation with or without CA4P (0.15 μg/ml).
# As described in Table 1, spleen cells were isolated from tumor-free BN×WF hybrid rats immunized twice (1 week between vaccinations) with BN7005-H1D2 tumor cells producing IL-18 and IL-12, respectively. Macrophages were isolated from the sample by allowing isolated spleen cells to adhere to the plastic surface of 96-well microtiter plates, at which point the non-adherent cells were removed.
# as §1
# The proliferative response of 3×10^5 admixed non-adherent cells (e.g. T-cells) stimulated for 4 days with SEA (0.05 ng/ml) was estimated as in Example 1. […] This effect is interpreted as due to a decrease of the suppressive effect of the IL-12 and IL-18 activated macrophages on T cell responses. […]
structure (smiles),measurement,setting,value
"COc1ccc(/C=C\c2cc(OC)c(OC)c(OC)c2)cc1OP(=O)([O-])[O-].[Na+].[Na+] [CA4P, CA4 phosphate disodium salt]",Half-life in vivo,[1],less than 15 min
same,Concentration in extracellular fluid,"[2]; 1.5 hours after treatment with 2 mg/kg in vivo, calculated from half-life and extracellular fluid 16.6% of body weight",≤ 180 ng/mL
same,Concentration in extracellular fluid,"[2]; 3 hours after treatment with 2 mg/kg in vivo, calculated",less than 1 ng/ml
same,Tumor inhibitory effect,[3]; 2 mg/kg 6 days a week as sole therapy,no significant effect as sole therapy
same,Tumor inhibitory effect,[3]; 2 mg/kg combined with vaccination (IL-18 and IL-12 transfected tumor cells),significant tumor inhibitory effects
same,Rats responding to SEA,"[4]; spleen cells challenged with SEA, 5 of 8 (untreated 13%)",63%
same,Samples responding to tumor antigen challenge,"[4]; spleen cells stimulated with autologous tumor cells, 7 of 18 (immunization alone 8%)",39%
same,Proliferative T cell response (CPM thymidine incorporation),"[5]; Rat#1, adherent spleen cells (MO) preincubated 3 h with CA4-P 0.15 μg/ml, then L1 nonadherent cells + SEA 0.05 ng/ml, 4 days",124K
same,Animals with stimulating effect on proliferative response,"[5]; parallel studies (FIG. 3), spleen cells stimulated with wild type tumor cells and SEA 0.1 ng/ml, CA4P 0.15 μg/ml",3 of 4
same,Enhancement of in vitro proliferative response of admixed non-adherent cells,[5]; preincubation of adherent cells (spleen macrophages) with CA4P,2 fold
